We go through eight compounds from publication PMC12105006, “AI-Driven De Novo Design and Development of Nontoxic DYRK1A Inhibitors” (Journal of Medicinal Chemistry, 2025).

The structures appear in SMILES notation. “Also recorded” adds a separate entry of the source. Read-outs that look alike come from different tables or passages of the source.

Series [1] deals with BV2 microglial cells. The experiment in a line: MTT cell viability / toxicity in BV2 cells. Format: cell-based, mouse. As to the method:
(§1) The mouse microglial BV2 cell line was propagated using DMEM, 10% FBS, 1% streptomycin–penicillin, under humidified 5% CO2 and 95% air. On attaining semiconfluence, cells were treated with 400 ng/mL of LPS for 24 h. Some cultures were pretreated for 1 h with the different compounds at several concentrations ranging from 1 to 10 μM. After treatment, cultures were processed for cell viability and nitrite production. Experiments were performed in triplicate. BV2 cells, microglial cells derived from C57/BL6 murine. These cells were immortalized using the v-raf/v-myc carrying J2 retrovirus, resulting in a stable cell line. The cells are commercially available from https://www.cytion.com/BV2-Cells/305156.
Cell viability was determined using the MTT assay, which measures the reduction of 3-(4,5-dimethylthiazol-2-yl)-2,5-diphenyltetrazolium bromide (MTT) to formazan crystals. Briefly, the MTT solution (2 mg/mL) was added to each well and incubated at 37 °C for 2 h. After removing the culture medium, 100 μL of dimethyl sulfoxide was added to each well to dissolve the formazan. The optical density was measured at 532 nm using a microplate reader. The absorbance of the control group was considered as 100% of the cell viability.

The target of series [2] is DYRK1B (Homo sapiens, UniProt Q9Y463). Kind of series: ADP-Glo DYRK1B kinase enzyme inhibition assay. The note with it: read-out: IC50 (nM) DYRK1B; ATP (10 μmol/well) and DYRKtidE (4 μmol/well) as substrate; triplicate.
Series [3] is described as follows: Oxygen radical absorbance capacity (ORAC) antioxidant assay.
Series [4] is described as follows: PAMPA-BBB assay. The series is classed as in vitro ADME. To be noted: for BBB prediction: PAMPA-BBB, porcine brain lipid, 3 h, 25 °C. The protocol:
The brain penetration of active compounds was assessed using a parallel artificial membrane permeability assay (PAMPA). Eleven drugs with known blood–brain barrier (BBB) permeability–Hydrocortisone, testosterone, imipramine, piroxicam, promazine, clonidine, desipramine, ofloxacin, aldosterone, verapamil, and caffeine–were included in each experiment to validate the analysis.
The compounds were dissolved in a 70/30 PBS pH = 7.4 buffer/ethanol solution at a concentration that ensured appropriate absorbance values in the UV–vis light spectrum. A 5 mL volume of these solutions was filtered using PDVF membrane filters (30 mm diameter, 0.45 μ m pore size).
The acceptor 96-well microplate (MultiScreen 96-well Culture Tray clear, Merck Millipore) was filled with 200 μL of PBS/ethanol (70/30). The donor 96-well filtrate plate (Multiscreen IP Sterile Plate PDVF membrane, 0.45 μ m pore size, Merck Millipore) was coated with 4 μL of porcine brain lipid (Spectra 2000) in dodecane (20 mg mL^–1).
After 5 min, 200 μL of each compound solution were added. The donor plate was then carefully placed onto the acceptor plate to form a “sandwich,” which was left undisturbed for 3 h at 25 °C. During this time, the compounds diffused from the donor plate through the brain lipid membrane into the acceptor plate.
After incubation, the donor plate was removed. The concentrations of the compounds and commercial drugs were determined by measuring absorbance in the donor wells (before incubation) and the acceptor wells (after incubation) using a CLARIOstar microplate reader (BMG LABTECH). Each sample was analyzed at five wavelengths in four replicates and two independent experiments.
The permeability coefficient (P e) of each drug, in centimeters per second, was calculated using the following formula Pe=Vd·Vr/(Vd−Vr)·s·t·100·Vd/100·Vd−%T(Vd−Vr) %T=Vr·Ar/Ad·Vd·100 where V d and V r are the volumes of the donor and receptor solutions (0.2 cm^3), s is the membrane area (0.2642 cm^2), t is the incubation time (3 h = 10,800 s), A r is the absorbance of the receptor plate after the experiment, and A d is the absorbance in the donor compartment before incubation. The results obtained for quality control drugs were compared with permeability data from the literature. […] Compounds that correlate with reported P e values between 2 and 4 × 10^–6 cm s^–1 are classified as CNS+/–.

Series [5] concerns the target Human DYRK1A Kinase (Homo sapiens, UniProt Q13627). The experiment in a line: ADP-Glo DYRK1A kinase enzyme inhibition assay. The note with it: for IC50: read-out: IC50 (nM) DYRK1A, ATP (10 μmol/well) and DYRKtidE (4 μmol/well) as substrate, triplicate. A general note: ADP-Glo turns the ADP formed in a reaction into a luminescent signal.
The subject of series [6] is LPS-induced NO production in BV2 microglial cells. The experiment in a line: LPS-induced nitrite (NO) production, Griess reaction. The series is classed as cell-based, mouse. The note with it: for dose-dependent inhibition of LPS-induced NO production: decreasing concentrations (Figures S17, S18); for LPS-induced NO production: maximum dose 5 μM (1, 5, 8, 9) or 10 μM (6, 7, 10, 11), LPS 24 h, 1 h pretreatment. The protocol:
as §1
The assessment of NO production involved quantifying nitrite levels, one of the end products of NO oxidation, through a procedure based on the diazotization of nitrite by sulfanilic acid (Griess reaction). Upon reaching semiconfluence, cells were exposed to 400 ng/mL of LPS for 24 h. Before this, certain cultures were pretreated with various compounds at concentrations ranging from 0.5 to 10 μM. Following a 24-h incubation period, 50 μL aliquots of the samples were combined with 50 μL of Griess reagent in 96-well plates, and the mixture was allowed to incubate at room temperature for 10 min. The absorbance of the resulting mixture was then measured at 520 nm using a microplate reader.
For orientation: The Griess reaction detects nitrite, a stable product of nitric oxide.

Setting [7] is: phosphate buffer pH 7.4, fluorescein/AAPH.

Sequence of DYRK1B (Q9Y463 whole entry): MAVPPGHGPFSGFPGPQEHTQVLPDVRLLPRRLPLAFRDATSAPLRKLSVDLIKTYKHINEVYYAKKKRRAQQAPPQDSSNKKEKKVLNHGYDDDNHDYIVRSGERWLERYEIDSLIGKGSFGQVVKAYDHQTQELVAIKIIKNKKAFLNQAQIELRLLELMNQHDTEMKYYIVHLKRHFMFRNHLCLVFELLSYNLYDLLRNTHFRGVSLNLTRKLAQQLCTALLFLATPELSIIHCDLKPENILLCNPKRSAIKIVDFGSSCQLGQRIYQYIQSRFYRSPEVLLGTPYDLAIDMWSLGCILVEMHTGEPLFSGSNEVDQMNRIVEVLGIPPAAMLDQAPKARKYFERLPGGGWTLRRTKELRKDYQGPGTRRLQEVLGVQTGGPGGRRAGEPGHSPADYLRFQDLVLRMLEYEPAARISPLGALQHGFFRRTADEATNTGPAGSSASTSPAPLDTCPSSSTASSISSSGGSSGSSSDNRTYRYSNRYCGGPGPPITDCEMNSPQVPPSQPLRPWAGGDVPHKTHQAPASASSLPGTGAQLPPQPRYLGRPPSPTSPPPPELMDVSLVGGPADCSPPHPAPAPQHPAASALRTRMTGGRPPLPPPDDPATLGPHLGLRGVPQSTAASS

By IC50 is commonly meant the point on the concentration scale where inhibition reaches its midpoint. As to `COc1cc(-c2c[nH]c3ncc(-c4cnn(C5CCN(C)CC5)c4)cc23)c(F)cc1C` [Compound 7, 3-(2-Fluoro-5-methoxy-4-methylphenyl)-5-(1-(1-methylpiperidin-4-yl)-1H-py-razol-4-yl)-1H-pyrrolo[2,3-b]pyridine], the “toxicity (MTT assay)” value in series [1] (concentrations up to 10 μM) is given as “nontoxic”. The half-inhibitory concentration (IC50) in series [2] turned out to be 174 ± 31 nM. Further, the ORAC was 1.3 ± 0.1 in series [3] and 1.3 ± 0.1 μmol of trolox equivalents/μmol of tested compound in series [3] (setting [7]). For the same compound, the BBB prediction entry in series [4] is on record as “CNS+ (CNS+, correlating with a bibliographic P e > 4)”.
For the compound `Clc1cc(Cl)cc(-c2c[nH]c3ncc(-c4cnn(C5CCNCC5)c4)cc23)c1` [Compound 10, 3-(3,5-Dichlorophenyl)-5-(1-(piperidin-4-yl)-1H-pyrazol-4-yl)-1H-pyrrolo[2,3-b]pyridine], the “toxicity (MTT assay)” value in series [1] (concentrations up to 10 μM) is listed as “nontoxic”. Also, the IC50 in series [5] amounted to 450 ± 18 nM; in series [2], 566 ± 61 nM. Besides, the results for the ORAC in series [3] and in series [3] (setting [7]) were 0.55 ± 0.07 and 0.55 ± 0.07 μmol of trolox equivalents/μmol of tested compound, respectively. Further, the “ORAC values” in series [3] is given as “around 0.5 trolox equivalents”. Moreover, the “ability to cross the blood–brain barrier by passive permeation” value in series [4] (PAMPA) is given as “in the limit of a positive prediction”. Further, the BBB prediction entry in series [4] was “CNS+/– (Compounds that correlate with reported P e values between 2 and 4 × 10^–6 cm s^–1 are classified as CNS+/–)”.
Consider `COc1cccc(-c2c[nH]c3ncc(-c4cnn(C5CCN(C)CC5)c4)cc23)c1` [Compound 5, 3-(3-Methoxyphenyl)-5-(1-(1-methylpiperidin-4-yl)-1H-pyrazol-4-yl)-1H-pyrro-lo[2,3-b]pyridine], for which the results for the “toxicity (MTT assay)” value in series [1] (at 5 μM) and in series [1] (at 10 μM) were “nontoxic” and “exhibited toxicity”, respectively. For the same compound, in series [5], the “DYRK1A activity / IC50 values” was “comparable to the reference compound, harmine”. Further, the IC50 worked out at 79 ± 5 nM in series [5] and 119 ± 11 nM in series [2]. Besides, the “dose-dependent inhibition of LPS-induced NO production” value in series [6] is “particularly strong”. The ORAC in series [3] was 1.25 ± 0.07; in series [3] (setting [7]), 1.25 ± 0.07 μmol of trolox equivalents/μmol of tested compound. For the same compound, the BBB prediction entry in series [4] is listed as “CNS+ (CNS+, correlating with a bibliographic P e > 4)”.
On to `CN1CCC(n2cc(-c3cnc4[nH]cc(-c5cccc(F)c5)c4c3)cn2)CC1` [Compound 1, 3-(3-fluorophenyl)-5-(1-(1-methylpiperidin-4-yl)-1H-pyrazol-4-yl)-1H-pyrrolo[2,3-b]pyridine], for which the results for the “toxicity (MTT assay)” value in series [1] (at 5 μM) and in series [1] (at 10 μM) were “nontoxic” and “exhibited toxicity”, respectively. Further, in series [5], the “DYRK1A activity / IC50 values” is recorded as “activity at the nanomolar level; also recorded: comparable to the reference compound, harmine”. The half-inhibitory concentration (IC50) in series [5] turned out to be 41 ± 3 nM; in series [2], 78 ± 3 nM. In series [6], the “dose-dependent inhibition of LPS-induced NO production” value is “particularly strong”. Besides, the “LPS-induced NO production” value in series [6] was “most pronounced effects”. The ORAC is given as 1.02 ± 0.03 in series [3] and 1.02 ± 0.03 μmol of trolox equivalents/μmol of tested compound in series [3] (setting [7]). The BBB prediction result in series [4] is recorded as “CNS+ (CNS+, correlating with a bibliographic P e > 4)”.
Regarding `Fc1cccc(-c2c[nH]c3ncc(-c4cnn(C5CCNCC5)c4)cc23)c1` [Compound 8, 3-(3-Fluorophenyl)-5-(1-(piperidin-4-yl)-1H-pyrazol-4-yl)-1H-pyrrolo[2,3-b]py-ridine], the “toxicity (MTT assay)” value in series [1] (at 5 μM) is on record as “nontoxic”; in series [1] (at 10 μM) it was “exhibited toxicity”. Moreover, the “DYRK1A activity / IC50 values” in series [5] is on record as “comparable to the reference compound, harmine”. For the same compound, the IC50 in series [5] came out at 48 ± 3 nM; in series [2], 70 ± 5 nM. Also, the “dose-dependent inhibition of LPS-induced NO production” value in series [6] is reported as “particularly strong”. The “LPS-induced NO production” value in series [6] is “most pronounced effects”. Also, the figures for the ORAC in series [3] and in series [3] (setting [7]) were 1.0 ± 0.1 and 1.0 ± 0.1 μmol of trolox equivalents/μmol of tested compound, respectively. Also, the BBB prediction result in series [4] is given as “CNS+ (CNS+, correlating with a bibliographic P e > 4)”.
Take `COc1cccc(-c2c[nH]c3ncc(-c4cnn(C5CCNCC5)c4)cc23)c1` [Compound 9, 3-(3-Methoxyphenyl)-5-(1-(piperidin-4-yl)-1H-pyrazol-4-yl)-1H-pyrrolo[2,3-b]pyridine]: the “toxicity (MTT assay)” value in series [1] (at 5 μM) is on record as “nontoxic”; in series [1] (at 10 μM), “exhibited toxicity”. In series [5], the “DYRK1A activity / IC50 values” is listed as “comparable to the reference compound, harmine”. Moreover, the results for the IC50 in series [5] and in series [2] were 81 ± 4 nM and 109 ± 8 nM, respectively. The “dose-dependent inhibition of LPS-induced NO production” value in series [6] is listed as “particularly strong”. The ORAC in series [3] is given as 1.3 ± 0.1; in series [3] (setting [7]), 1.3 ± 0.1 μmol of trolox equivalents/μmol of tested compound. Also, the BBB prediction entry in series [4] is given as “CNS+ (CNS+, correlating with a bibliographic P e > 4)”.
`CN1CCC(n2cc(-c3cnc4[nH]cc(-c5cc(Cl)cc(Cl)c5)c4c3)cn2)CC1` [Compound 6, 3-(3,5-Dichlorophenyl)-5-(1-(1-methylpiperidin-4-yl)-1H-pyrazol-4-yl)-1H-py-rrolo[2,3-b]pyridine]: the “toxicity (MTT assay)” value in series [1] (concentrations up to 10 μM) is “nontoxic”. Further, the IC50 in series [2] came to 577 ± 49 nM. In addition, the “ORAC values” in series [3] was “around 0.5 trolox equivalents”. The BBB prediction result in series [4] was “CNS+ (CNS+, correlating with a bibliographic P e > 4)”.
With `COc1cc(-c2c[nH]c3ncc(-c4cnn(C5CCNCC5)c4)cc23)c(F)cc1C` [Compound 11, 3-(2-Fluoro-5-methoxy-4-methylphenyl)-5-(1-(piperidin-4-yl)-1H-pyrazol-4-yl)-1H-pyrrolo[2,3-b]pyridine], the “toxicity (MTT assay)” value in series [1] (concentrations up to 10 μM) is recorded as “nontoxic”. The values for the IC50 in series [5] and in series [2] were 165 ± 17 nM and 165 ± 30 nM, respectively. Moreover, the ORAC in series [3] is reported as 1.20 ± 0.1; in series [3] (setting [7]) it was 1.2 ± 0.1 μmol of trolox equivalents/μmol of tested compound. Also, in series [4], the BBB prediction result is “CNS+ (CNS+, correlating with a bibliographic P e > 4)”.
